Measurements reported in patent US20160287726A1, “CATIONIC CONTRAST AGENTS AND METHODS OF USING THE SAME” (The Trustees of the University of Pennsylvania, priority 2015, published 2016).

Columns and labels:
[1] = Demetallation assay in 1M HCl; assay type: physicochemical; details: 2.5 mM, 37° C.
Method: Since transmetallation was not observed in serum supplemented with ZnCl2, the stability of the various Gd complexes were further evaluated by monitoring demetallation in a highly acidic, non-physiologic solution (1M HCl). Even under these harsh conditions, Gd remained complexed with Compound 6 for at least 24 hours (FIG. 3B). […] Since a measurement of the T1 relaxation time could not be acquired at t=0 for this assay, the relaxation ratio could not be calculated. Instead, demetallation was monitored strictly by changes in the T1 relaxation time. In instances of demetallation, the T1 relaxation time moved towards that of free Gd.
Demetallation Assay A 300 μL solution of 2.5 mM Gd-compound was incubated at 37° C. in 1M HCl and the longitudinal relaxation times were acquired at appropriate time points. The relaxation time was then plotted against time.

[2] = Transmetallation assay with ZnCl2 in fetal bovine serum; assay type: physicochemical; details: 2.5 mM complex, 2.5 mM ZnCl2, fetal bovine serum, pH 7.4, 37° C., over 72 hours
Method: To directly compare the stability of Complex A to Gd-DTPA (Magnevist®) and Gd-DOTA (also known as gadoteric acid), a transmetallation assay using equimolar concentrations of ZnCl2 was performed in fetal bovine serum. Transmetallation was monitored as a function of time by calculating the relaxation ratio, R1(t)/R1(0), where R1(t) is the longitudinal Relaxivity at time t and R1(0) is the longitudinal Relaxivity in the absence of ZnCl2 (i.e. time 0).
Transmetallation of Gd^3+ ion by Zinc^2+ ion was performed in fetal bovine serum. The solution contained 4 mL of 2.5 mM Gd-complex and 2.5 mM ZnCl2 at pH 7.4. The mixture was stirred at 37° C. throughout the experiment while 300 μL aliquot was taken up at the appropriate time for measurement of the longitudinal relaxation time. The water proton relaxation times were measured using a Bruker mq60 tabletop MR relaxometer operating at 1.41T. Ratio of reverse relaxation time at each time point (R1(t)) and relaxation time at time zero (R1(0)) was plotted against time.

[3] = test system: GAG-rich cartilage (articular cartilage microparticles from juvenile bovine femurs); test: Electrostatic interaction with cartilage microparticles (T1 of supernatant); assay type: binding; details: normalized to average T1 of respective control
Method: To assess whether Gd-DOTA-Am4 interacts electrostatically with GAG-rich cartilage, articular cartilage from juvenile bovine femurs was ground into microparticles. These microparticles were then mixed and incubated with Gd-DOTA, Gd-DTPA, or Gd-DOTA-Am4. The microparticles were then pelleted and the T1 relaxation time of the supernatant was measured. Measurements were compared to analogous control Gd complexes that were not incubated with cartilage microparticles (FIG. 5). All samples were normalized to the average T1 relaxation time of their respective control.

[4] = test system: cartilage and meniscus of an intact bovine femorotibial explant; test: Tissue-based safety assay, intra-articular injection into femorotibial explant; details: after 3 hours, compared with Saline, p>0.05
Method: (§1) The safety profile of Gd-DOTA-Am4 was assessed via both cell- and tissue-based assays. […] Similarly, after intra-articular injection of Saline, Gd-DTPA, or Gd-DOTA-Am4 into the joint space of an intact bovine femorotibial explant, the area fractions of live and dead cells in the cartilage and meniscus were equivalent after 3 hours (p>0.05) (FIG. 9).

[5] = test system: bovine meniscal fibrochondrocytes (MFCs); test: Cell-based safety assay on meniscal fibrochondrocyte monolayers; details: over 24 hours, basal media, compared with Saline
Method: as §1

[6] = Relaxivity measurements (longitudinal relaxivity r1); assay type: physicochemical; details: Bruker mq60 MR relaxometer, 1.41 T (60 MHz), saline pH 7.4
Method: Compound2 was prepared by bromination of methyl acrylate using bromine in chloroform at room temperature, while compound 3 was prepared by slow addition of diethylamine into compound 2 in ether at 0° C. The methyl and ethyl protecting groups were efficiently removed with a methanol:NaOH (0.5 M) solvent cocktail (40:60) for 48 h. The solution was neutralized with a 2 M HCl solution and dried. The residue was redissolved in pure methanol, and the precipitate that formed was filtered and the solvent dried in vacuuo to yield compound 6. […] In comparison, the longitudinal relaxivity of Magnevist® was measured to be 3.9 mM^−1s^−1 (FIG. 2B).
Longitudinal relaxation times (T1) were measured in saline at pH 7.4 using a Bruker mq60 tabletop MR relaxometer operating at 1.41 T. The longitudinal relaxivity (r1) of the complex was calculated by plotting the reciprocal of the T1 relaxation time versus the gadolinium concentration.

[7] = test system: adult bovine menisci explants with defect; test: Contrast-enhanced T1-weighted MR imaging of meniscus explants with defect; details: 2 mM, pH 7.4, ~30 min bath; for qualitative contrast / signal intensity within soft tissue defect: T1-weighted images, 4.7 T
Method: To evaluate the efficacy of Complex A in highlighting soft tissue tears in comparison to Gd-DTPA, explants (8 mm in diameter) were obtained from adult bovine menisci. Well-defined defects were then introduced by using a punch to create a 4 mm internal core, which was left in place. Tissue explant blocks (n=9; 3 per group) were placed in a 48-well microplate and bathed in 2 mM Gd-DTPA, Complex A, or Saline (pH 7.4) for ˜30 min. The pH and concentration of Gd^+3 was kept constant throughout the experiment. T1-weighted images were then acquired in the axial plane (FIGS. 6A and 7). […] In the saline samples, the defects were extremely difficult to identify. To acquire a more quantitative comparison between the three groups, regions of interest (ROI) were drawn around the lateral defects and, following background subtraction (FIGS. 6B-D), the total signal intensity (area under curve) within the ROI was quantified and normalized to the length of the tear (FIG. 6E). The Wilcoxon signed-rank test was then used to compare contrast enhancement for the various contrast agents.
Adult bovine stifle joints were purchased from a commercial vendor (Animal Technologies, Tyler, Tex.), dissected in a sterile field, and the menisci removed. Biopsy punches (Miltex, York, Pa.) were used to produce 8 mm diameter full thickness samples in the axial plane. Well-defined defects were then introduced by using a 4 mm punch to create an internal core, which was left in place. […]
A region of interest (ROI) was determined for each MR image slice (n=6 per contrast agent, i.e. 2 slices per sample). […] The ROI height was determined for each slice individually, such that it could span the sample from top to bottom and exclude media and unrelated bright areas within the cartilage (e.g., cavities near the liquid-cartilage interface). […]
ROIs were partitioned into one-pixel tall lines spanning the entire width. […] All of the integrations in an ROI were then averaged to quantify that ROI's average signal intensity. […]

SMILES	time Gd remained complexed (demetallation) ([1]; monitored by T1 relaxation time)	demetallation (T1 relaxation time) [1]	transmetallation (relaxation ratio R1(t)/R1(0)) [2]	T1 relaxation time of supernatant after incubation with cartilage microparticles vs control without microparticles [3]	area fractions of live and dead cells in the cartilage and meniscus [4]	cell morphology, viability, and proliferation [5]	longitudinal relaxivity [6] [mM⁻¹ s⁻¹]	qualitative contrast / signal intensity within soft tissue defect [7]	qualitative contrast / signal intensity within soft tissue defect ([7]; listed as Magnevist®)	total signal intensity within ROI normalized to length of tear (contrast enhancement) ([7]; statistical comparison between groups)
NCC(C(=O)O)N1CCN(C(CN)C(=O)O)CCN(C(CN)C(=O)O)CCN(C(CN)C(=O)O)CC1 (stereo not drawn) [Compound 6, 1,4,7,10-tetraazacyclododecane-N,N′,N″,N′″-(α-(aminomethyl))-tetraacetic acid]	at least 24 hours	–	–	–	–	–	–	–	–	–
O=C([O-])CN1CCN(CC(=O)[O-])CCN(CC(=O)O)CCN(CC(=O)[O-])CC1.[Gd+3] [Gd-DOTA, 1,4,7,10-tetraazacyclododecane-1,4,7,10-tetraacetic acid (DOTA) gadolinium complex]	–	rapid demetallation	No transmetallation was detected	no change in the relaxation time	–	–	–	–	–	–
O=C([O-])CN(CCN(CC(=O)[O-])CC(=O)O)CCN(CC(=O)[O-])CC(=O)O.[Gd+3] [Gd-DTPA, Diethylenetriaminepentaacetic acid (DTPA) gadolinium complex]	–	rapid demetallation	rapidly increased	no change in the relaxation time	equivalent	qualitatively similar between groups	3.9	much less contrast was observed within the defect at greater depths	less contrast was observed within the defect at greater depths	statistically significant improvement in contrast compared to saline
